Experimental data as given in patent US20240156790A1, “COMPOUNDS, COMPOSITIONS, AND METHODS FOR MODULATING FERROPTOSIS AND TREATING EXCITOTOXIC DISORDERS” (THE TRUSTEES OF COLUMBIA UNIVERSITY IN THE CITY OF NEW YORK, priority 2018, published 2024).

Key:
[1] = TH-2-31 IP PK Study, 40 mg/kg; assay type: in vivo, C57BL/6 mice; conditions: 40 mg/kg IP, up to eight hours
Procedure: C57BL/6 mice (8-weeks of age and ˜25 g weight) were weighed before injection and divided into groups of 2 male and female mice per cage. TH-2-31 was dissolved in 5% DMSO/95% of 65% v/v of 25% w/v 2-hydroxypropyl-3-cyclodextrin (Cayman Chemical) dissolved in 20% EtOH, 30% v/v Poly(ethylene glycol)-400 (Sigma Aldrich 202398), 5% v/v Tween 80 (Fluka 59924) to create a 4 mg/mL solution. The same formulation without TH-2-31 was used as a vehicle control. The solution was sterilized using a […] Steriflip filter unit (Thomas Scientific 1189Q46). Mice were dosed IP and euthanized by CO2 asphyxiation for 3 min at 0, 1, 2, 4, and 8 h after administration. To ensure that the vehicle was well-tolerated 4 mice were treated with vehicle and euthanized 4 h after administration. ˜0.5 mL of blood was collected via cardiac puncture and immediately put in K3 EDTA microtubes ([…] 41.1504.105) and kept on ice. Organs were harvested, placed in Eppendorf tubes, and frozen on dry ice. Blood samples were centrifuged for 10 min at 2,100×g at 4° C., then plasma was transferred to a clean tube and frozen on dry ice. […] After drying, the samples were resuspended in 100 μL of methanol and analyzed by UPLC-MS described below. The concentration of TH-2-31 was determined against a standard curve with a linear fit and the data plot in GraphPad Prism 9 and fit with a one phase decay. […]

HT-1080 cells = assay: Rescue activity of Fer-1 analogs: inhibition of erastin-, IKE- or RSL3-induced death (Alamar Blue viability); assay type: cell-based

SMILES: Cc1noc(-c2cnc(NC3CCCCC3)c(NC3CCCCC3)c2)n1 [TH-2-31, N^2,N^3-dicyclohexyl-5-(3-methyl-1,2,4-oxadiazol-5-yl)pyridine-2,3-diamine]
- accumulation in plasma and brain, in words [1]: stably accumulate at micromolar concentrations in plasma and brain even eight hours after

SMILES: CCOC(=O)c1ccc(NC2CCCCC2)c(N)c1 [Fer-1, Ferrostatin-1, reference compound]
- EC50 (HT-1080 cells; Homo sapiens, ^a 50% viability, HT-1080 cells treated with 10 μM erastin): 50 nM

SMILES: Cc1noc(-c2ccc(NC3CCCCC3)c(NC3CCCCC3)c2)n1 [PHB4082, N1,N2-dicyclohexyl-4-(3-methyl-1,2,4-oxadiazol-5-yl)benzene-1,2-diamine]
- increase in potency compared to fer-1 (HT-1080 cells; suppressing erastin-induced ferroptosis): 7 fold
